One test deals with C. briggsae complex I (Caenorhabditis briggsae, UniProt A8X476+A8XFG2+Q8HEC4). Nature of the test: In vitro complex I activity assay, C. briggsae mitochondria. It is filed as biochemical. Here is the method:
Mitochondria were isolated from the following free-living nematode strains: C. elegans—N2, CB3474, ECA882, ECA917, ECA1075, ECA1080; C. briggsae—AF16; P. pacificus—PS312; and P. hermaphrodita—B178. With the exception of the P. hermaphrodita strain B178, adult worms of each strain were grown in bulk through liquid culture to obtain mitochondria in sufficient quantities. Due to poor growth in liquid media, mixed stage populations of P. hermaphrodita were washed off and collected from NGM plates seeded with OP50. The isolation of mitochondria from all free-living nematode strains followed the protocol previously outlined in Burns et al.[24]. In brief, a 1 L saturated culture of E. coli HB101 was concentrated 20-fold in 50 mL complete S-medium. ~500,000 L1 worms synchronized from an embryo preparation performed the day prior were added to the S-media/HB101 suspension and grown to adulthood over the course of 3.5 days at 20 °C with shaking at 165 rpm. Following growth, worms were collected in 10 ×15 mL conical tubes and washed 7 times in M9 buffer. Worm suspensions were then combined into a single 15 mL conical tube and diluted to a final volume of 15 mL with M9 buffer. 1 mL aliquots of worm suspension were then distributed to 15 × 1.5 mL screw-cap microcentrifuge tubes and were pelleted at 500 g for 1 min. Excess M9 was aspirated without disturbing the worm pellet. 600 μL ice-cold isolate buffer A (250 mM sucrose, 10 mM Tris (pH 7.5), 1 mM EDTA, 1 mM PMSF (freshly prepared)) and 300 μL cold glass beads were then added to each tube. Tubes were incubated on ice for 10 min, and the worms were then lysed by bead beating (6 x 30 s, with 1 min cooling intervals). Tubes containing worm lysate were centrifuged at 1,000 g for 10 min at 4 °C and the supernatant was transferred to 15 new microcentrifuge tubes on ice. The tubes were centrifuged a second time at 1,000 g for 10 min at 4 °C and the supernatant was once again transferred to 15 new microcentrifuge tubes on ice. These tubes were then centrifuged at 16,000 g for 10 min at 4 °C. The resulting mitochondrial pellet was washed twice by re-suspension in 300 μL of ice-cold isolate buffer B (250 mM sucrose, 10 mM Tris (pH 7.5), 1 mM EDTA). Following the final wash, isolation buffer was aspirated from each tube and the pellets were flash-frozen in ethanol/dry ice and stored at −80 °C until needed.
The enzymatic activities of individual ETC complexes (I-IV) were assessed spectrophotometrically in isolated mitochondria using a Varioskan LUX Multimode plate reader (ThermoFisher Scientific). Mitochondrial pellets previously isolated were thawed on ice and resuspended in ice-cold isolation buffer (250 mM sucrose, 10 mM Tris (pH 7.5), 1 mM EDTA). The BCA assay (Walker, 1994) was used to quantify the protein concentration of mitochondria suspensions; solutions were diluted to a concentration of 0.2 mg/mL for use in all assays. For the complex I assay, mitochondria pellets were freeze-thawed on ice three times to increase enzyme accessibility. […] 20 μL mitochondria suspension was then added/mixed with a pipette to initiate the reaction. Immediately following the addition of mitochondria, absorbance was measured (complex I and II: 600 nm; complex III and IV: 550 nm) in 30 s intervals over 15 min. Enzymatic activity was determined in each reaction by plotting absorbance versus time and calculating the slope of the curve during the initial linear phase of the reaction. […] Percent activity of each complex was calculated by dividing the enzyme-specific activity of each well by the enzyme-specific activity of the corresponding solvent controls.
Chemical solutions were prepared in complex I assay buffer composed of 25 mM KPi buffer (pH 7.5), 3 mg/mL bovine serum albumin (BSA), 80 μM NADH, 60 μM decylubiquinone, 160 μM DCIP, 2 μM antimycin A and 2 mM KCN.
For preliminary screens of hit compounds, compounds were screened at 100 μM; data are the average of at least three biological replicates.

Another test deals with L1 wild-type C. elegans. The test is described as follows: 15-hour motility assay with drug alone (no KCN). It is filed as cell-based, Caenorhabditis elegans.
[1] abbreviates: C. briggsae mitochondria, Mean, read-out: in vitro complex I activity relative to solvent control.
The mark [2] stands for this setting: C. briggsae mitochondria, single replicate, read-out: in vitro complex I activity relative to solvent control.
Where [3] appears, read: 15 hour drug alone (without KCN) treatment, dose 0.1 µM, Mean of replicates.
The mark [4] stands for this setting: 15 hour drug alone (without KCN) treatment, dose 0.1 µM, individual replicates.
Where [5] appears, read: 15 hour drug alone (without KCN) treatment, dose 0.2 µM, Mean of replicates.
[6] abbreviates: 15 hour drug alone (without KCN) treatment, dose 0.2 µM, individual replicates.
Where [7] appears, read: 15 hour drug alone (without KCN) treatment, dose 0.4 µM, Mean of replicates.
The mark [8] stands for this setting: 15 hour drug alone (without KCN) treatment, dose 0.4 µM, individual replicates.
Setting [9] is: 15 hour drug alone (without KCN) treatment, dose 0.8 µM, Mean of replicates.
The mark [10] stands for this setting: 15 hour drug alone (without KCN) treatment, dose 0.8 µM, individual replicates.
The mark [11] stands for this setting: 15 hour drug alone (without KCN) treatment, dose 3.1 µM, Mean of replicates.
Where [12] appears, read: 15 hour drug alone (without KCN) treatment, dose 3.1 µM, individual replicates.
The mark [13] stands for this setting: 15 hour drug alone (without KCN) treatment, dose 6.3 µM, Mean of replicates.
Where [14] appears, read: 15 hour drug alone (without KCN) treatment, dose 6.3 µM, individual replicates.
The mark [15] stands for this setting: 15 hour drug alone (without KCN) treatment, dose 12.5 µM, Mean of replicates.
[16] abbreviates: 15 hour drug alone (without KCN) treatment, dose 12.5 µM, individual replicates.
Where [17] appears, read: 15 hour drug alone (without KCN) treatment, dose 25 µM, Mean of replicates.
Where [18] appears, read: 15 hour drug alone (without KCN) treatment, dose 25 µM, individual replicates.
[19] abbreviates: 15 hour drug alone (without KCN) treatment, dose 50 µM, Mean of replicates.
[20] abbreviates: 15 hour drug alone (without KCN) treatment, dose 50 µM, individual replicates.
Setting [21] is: 15 hour drug alone (without KCN) treatment, dose 100 µM, Mean of replicates.
Setting [22] is: 15 hour drug alone (without KCN) treatment, dose 100 µM, individual replicates.

The record followed here is article PMC11079024, “Identification of a family of species-selective complex I inhibitors as potential anthelmintics” (Nature Communications, 2024).

pIC50: −log10 of the molar value. “And” between values parts separate entries of the source, which are not always exact repeats. Equal values may be shown once. Read-outs that look alike come from different tables or passages of the source.

C. briggsae complex I, sequence (A8X476 31-482): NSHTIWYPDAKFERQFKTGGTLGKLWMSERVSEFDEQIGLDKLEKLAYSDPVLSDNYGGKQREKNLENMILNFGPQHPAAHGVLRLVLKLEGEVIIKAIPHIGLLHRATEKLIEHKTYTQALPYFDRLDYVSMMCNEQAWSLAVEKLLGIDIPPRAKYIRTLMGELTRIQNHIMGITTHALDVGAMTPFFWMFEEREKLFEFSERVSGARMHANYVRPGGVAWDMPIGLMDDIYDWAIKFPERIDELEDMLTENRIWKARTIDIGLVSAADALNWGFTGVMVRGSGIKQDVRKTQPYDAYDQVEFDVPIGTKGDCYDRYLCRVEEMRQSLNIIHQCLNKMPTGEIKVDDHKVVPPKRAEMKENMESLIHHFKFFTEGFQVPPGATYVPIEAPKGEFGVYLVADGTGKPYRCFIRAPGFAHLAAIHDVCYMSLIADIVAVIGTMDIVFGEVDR
C. briggsae complex I, sequence (A8XFG2 17-199): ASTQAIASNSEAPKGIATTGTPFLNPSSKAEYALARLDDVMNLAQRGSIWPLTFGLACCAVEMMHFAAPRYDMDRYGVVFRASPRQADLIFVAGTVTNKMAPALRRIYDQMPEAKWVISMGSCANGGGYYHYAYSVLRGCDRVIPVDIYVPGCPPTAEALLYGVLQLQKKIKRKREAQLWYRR
C. briggsae complex I, sequence (Q8HEC4 whole entry): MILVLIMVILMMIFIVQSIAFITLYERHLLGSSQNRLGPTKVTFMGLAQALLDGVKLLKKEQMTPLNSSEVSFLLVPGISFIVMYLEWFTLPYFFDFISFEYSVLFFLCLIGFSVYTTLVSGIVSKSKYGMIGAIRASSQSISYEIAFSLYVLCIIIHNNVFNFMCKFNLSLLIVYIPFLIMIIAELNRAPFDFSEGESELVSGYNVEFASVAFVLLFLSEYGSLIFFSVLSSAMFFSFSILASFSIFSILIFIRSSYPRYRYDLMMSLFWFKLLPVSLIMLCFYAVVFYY

Take `Cc1ccccc1OCCCCn1cnc2ccccc21` [Compound 7732524]: at C. briggsae complex I (setting [1]), the remaining activity at 0.0001 µM was 92.8%, the remaining activity at 0.0005 µM came to 91%, the remaining activity at 0.001 µM was determined as 90.6% and the remaining activity at 0.0025 µM came out at 91.8%. Besides, on C. briggsae complex I (setting [1]), the remaining activity at 0.005 µM is 99.8%, the remaining activity at 0.013 µM came to 86.4%, the remaining activity at 0.025 µM is 74.3% and the remaining activity at 0.063 µM is 43.5%. Also, on C. briggsae complex I (setting [2]), the remaining activity at 0.0001 µM is 92.9%, the remaining activity at 0.0005 µM stood at 90.7%, the remaining activity at 0.001 µM turned out to be 94.1% and the remaining activity at 0.0025 µM amounted to 95.4%. Moreover, at C. briggsae complex I (setting [2]), the remaining activity at 0.005 µM came to 102%, the remaining activity at 0.013 µM amounted to 91.2%, the remaining activity at 0.025 µM worked out at 77.1% and the remaining activity at 0.063 µM came to 44.1%. Further, the remaining activity at 0.125 µM on C. briggsae complex I (C. briggsae mitochondria, 0.125 µM, Mean, read-out: in vitro complex I activity relative to solvent control) was found to be 26.1%. For the same molecule, the remaining activity at 0.313 µM at C. briggsae complex I (C. briggsae mitochondria, 0.313 µM, Mean, read-out: in vitro complex I activity relative to solvent control) amounted to 7.94%. The remaining activity at 0.625 µM at C. briggsae complex I (C. briggsae mitochondria, 0.625 µM, Mean, read-out: in vitro complex I activity relative to solvent control) was found to be 0.818%. In addition, the remaining activity at 1.5 µM on C. briggsae complex I (C. briggsae mitochondria, 1.5 µM, Mean, read-out: in vitro complex I activity relative to solvent control) worked out at 1.29%. The remaining activity at 3 µM at C. briggsae complex I (C. briggsae mitochondria, 3 µM, Mean, read-out: in vitro complex I activity relative to solvent control) is 1.71%. The remaining activity at 15 µM on C. briggsae complex I (C. briggsae mitochondria, 15 µM, Mean, read-out: in vitro complex I activity relative to solvent control) came out at 1.4%. Further, the remaining activity at 37.5 µM at C. briggsae complex I (C. briggsae mitochondria, 37.5 µM, Mean, read-out: in vitro complex I activity relative to solvent control) was 1.05%. In addition, at C. briggsae complex I (C. briggsae mitochondria, 75 µM, Mean, read-out: in vitro complex I activity relative to solvent control), the remaining activity at 75 µM turned out to be 0.358%. On C. briggsae complex I (purified mitochondria), the pIC50 was 7.22.

For the molecule `Cc1cc(O)c2c(c1)O[C@@]1(C)CC[C@H]3C(C)(C)CCC[C@]34CO[C@@H]2[C@H]41` [Siccanin], the “Value relative to DMSO control, drug alone (without KCN)” value was 1.015 with L1 wild-type C. elegans (setting [3]); 1.185 and 1.067 and 1.014 and 0.891 and 0.918 in the test with L1 wild-type C. elegans (setting [4]); 1.093 in the test on L1 wild-type C. elegans (setting [5]); 1.232 and 1.040 and 1.048 and 0.936 and 1.206 in the test on L1 wild-type C. elegans (setting [6]); 1.048 in the test with L1 wild-type C. elegans (setting [7]); 1.109 and 1.211 and 1.036 and 0.917 and 0.964 in the test with L1 wild-type C. elegans (setting [8]). Besides, the “Value relative to DMSO control, drug alone (without KCN)” value in the test with L1 wild-type C. elegans (setting [9]) is 1.013; with L1 wild-type C. elegans (setting [10]), 1.207 and 1.062 and 0.959 and 0.891 and 0.945; in the test with L1 wild-type C. elegans (setting [11]), 1.008; with L1 wild-type C. elegans (setting [12]), 1.037 and 1.098 and 0.979 and 0.904 and 1.020; with L1 wild-type C. elegans (setting [13]), 0.898; with L1 wild-type C. elegans (setting [14]), 0.890 and 0.970 and 0.950 and 0.655 and 1.026. Besides, the “Value relative to DMSO control, drug alone (without KCN)” value is 0.790 in the test with L1 wild-type C. elegans (setting [15]); 1.073 and 0.897 and 0.844 and 0.477 and 0.657 in the test with L1 wild-type C. elegans (setting [16]); 0.737 in the test with L1 wild-type C. elegans (setting [17]); 0.991 and 0.757 and 0.575 and 0.705 and 0.658 in the test with L1 wild-type C. elegans (setting [18]); 0.668 in the test on L1 wild-type C. elegans (setting [19]); 0.587 and 0.826 and 0.603 and 0.513 and 0.810 in the test with L1 wild-type C. elegans (setting [20]). In addition, the “Value relative to DMSO control, drug alone (without KCN)” value with L1 wild-type C. elegans (setting [21]) was 0.433; in the test with L1 wild-type C. elegans (setting [22]), 0.545 and 0.463 and 0.295 and 0.375 and 0.488.

As for `O=C(NCCc1ccc(Cl)cc1)c1ccccc1C(F)(F)F` [Wact-11], the “Value relative to DMSO control, drug alone (without KCN)” value with L1 wild-type C. elegans was 0.932; in the test with L1 wild-type C. elegans (setting [3]), 1.053; in the test with L1 wild-type C. elegans (setting [4]), 0.994 and 1.015 and 1.070 and 1.131; in the test with L1 wild-type C. elegans (setting [5]), 1.080; in the test with L1 wild-type C. elegans (setting [6]), 0.940 and 1.013 and 1.214 and 1.154; in the test with L1 wild-type C. elegans (setting [7]) it was 1.046. Also, the “Value relative to DMSO control, drug alone (without KCN)” value in the test on L1 wild-type C. elegans (setting [8]) was 0.988 and 1.230 and 1.034; in the test on L1 wild-type C. elegans (setting [9]), 1.007; with L1 wild-type C. elegans (setting [10]) it was 0.912 and 0.907 and 0.949 and 1.257; in the test with L1 wild-type C. elegans (setting [11]) it was 0.983; in the test on L1 wild-type C. elegans (setting [12]) it was 0.954 and 0.915 and 1.162 and 0.901; in the test with L1 wild-type C. elegans (setting [13]), 0.923. In addition, the “Value relative to DMSO control, drug alone (without KCN)” value with L1 wild-type C. elegans (setting [14]) is 0.914 and 0.918 and 0.975 and 0.884; in the test with L1 wild-type C. elegans (setting [15]), 0.780; in the test on L1 wild-type C. elegans (setting [16]), 0.693 and 0.662 and 1.090 and 0.677; in the test with L1 wild-type C. elegans (setting [17]), 0.783; with L1 wild-type C. elegans (setting [18]), 0.523 and 0.436 and 0.991 and 1.184; in the test with L1 wild-type C. elegans (setting [19]), 0.600. Also, the “Value relative to DMSO control, drug alone (without KCN)” value in the test with L1 wild-type C. elegans (setting [20]) was 0.549 and 0.392 and 0.803 and 0.657; in the test with L1 wild-type C. elegans (setting [21]), 0.425; in the test with L1 wild-type C. elegans (setting [22]), 0.232 and 0.150 and 0.884 and 0.433.

As usually defined, the pIC50 is the negative decadic logarithm of the IC50, by convention in mol/L. A high value points to a low IC50.
